The text below walks through data of patent US12509462B2, “3-(phenylsulfonyl)-[1,2,3]triazolo[1,5A]quinazolin-5(4H)-one derivatives” (BIOVERSYS AG, priority 2018, dated 2025).

In brackets after ≈: the same amount, converted by molar mass. A value given as a limit tells only on which side of the number the result lay.

One data set deals with MRSA. The data set can be described thus: MIC by broth microdilution in CA-MHB (CLSI). To be noted: Staphylococcus aureus, 18 h, read-out: MIC on MRSA.
The next data set relates to HepG2. To be noted: human, 48 h.
Data set [1] relates to Staphylococcus aureus MRSA strain (USA300 isolate). The data set can be described thus: Hemolysis Assay II (exotoxin-mediated lysis of rabbit red blood cells by culture filtrate). The data set is classed as cell-based. The note with it: Erythrocyte; for minimal effective concentration / IC95: 18 h; for minimal effective concentration: absorbance <2× the average of the complete inhibition control, read-out: Hemolysis assay II MEC (minimal effective concentration); for IC95: read-out: Hemolysis assay II IC95; for IC50: 18 h culture in CA-MHB, rabbit red blood cells.

In general, MIC refers to the smallest concentration in the dilution series that meets the test's criterion for growth inhibition. Consider `Cc1ccc(S(=O)(=O)c2nnn3c2[nH]c(=O)c2cc(O)c(OCCO)cc23)c(C)c1` [Compound 61, 3-(2,4-dimethylphenyl)sulfonyl-7-hydroxy-8-(2-hydroxyethoxy)-4H-triazolo[1,5-a]quinazolin-5-one], for which the MIC in the data set on MRSA is at least 100 µM. Also, the “LD50 HepG2” value with HepG2 is listed as “>=100 μM”.

The term IC95 denotes the concentration at which the effect reaches the 95% level. A word on the IC50: it is the concentration at which inhibition is half-maximal. Low readings indicate inhibition by little substance, high ones a need for much substance. For the compound `COC(=O)CCCOc1ccc2c(=O)[nH]c3c(S(=O)(=O)c4ccc(C)cc4C)nnn3c2c1` [Compound 55, methyl 4-[[3-(2,4-dimethylphenyl)sulfonyl-5-oxo-4H-triazolo[1,5-a]quinazolin-8-yl]oxy]butanoate], in data set [1], the minimal effective concentration is 3 µg/mL, the IC95 stood at 2.45 µg/mL (≈ 5.21 µM) and the IC50 worked out at 1 µg/mL (≈ 2.13 µM). Moreover, the MIC in the data set on MRSA is at least 100 µM. For the same compound, the “LD50 HepG2” value in the data set on HepG2 is “>=100 μM”.

Regarding `COc1ccc2c(=O)[nH]c3c(S(=O)(=O)c4ccc(C)cc4F)nnn3c2c1` [Compound 14, 3-(2-fluoro-4-methyl-phenyl)sulfonyl-8-methoxy-4H-triazolo[1,5-a]quinazolin-5-one], in the data set on MRSA, the MIC was at least 100 µM. The “LD50 HepG2” value in the data set with HepG2 was “>=100 μM”.

Regarding `Cc1cc(C)c(S(=O)(=O)c2nnn3c2[nH]c(=O)c2ccccc23)c(Cl)c1` [Compound 51, 3-(2-chloro-4,6-dimethyl-phenyl)sulfonyl-4H-triazolo[1,5-a]quinazolin-5-one], in data set [1], the minimal effective concentration came out at 6 µg/mL, the IC95 turned out to be 5.25 µg/mL (≈ 13.5 µM) and the IC50 came to 1.9 µg/mL (≈ 4.89 µM). Further, the MIC with MRSA is at least 100 µM. Besides, the “LD50 HepG2” value with HepG2 is “>=100 μM”.

In the case of `CCOC(=O)c1ccc(S(=O)(=O)c2nnn3c2[nH]c(=O)c2ccc(OC)cc23)c(C)c1` [Compound 24, ethyl 4-[(8-methoxy-5-oxo-4H-triazolo[1,5-a]quinazolin-3-yl)sulfonyl]-3-methyl-benzoate], the MIC in the data set with MRSA was at least 100 µM. In addition, the “LD50 HepG2” value in the data set with HepG2 is given as “>=100 μM”.

Consider `Cc1ccc(S(=O)(=O)c2nnn3c2[nH]c(=O)c2ccc(I)cc23)c(C)c1` [Compound 42, 3-(2,4-dimethylphenyl)sulfonyl-8-iodo-4H-triazolo[1,5-a]quinazolin-5-one], for which, in data set [1], the minimal effective concentration is 6 µg/mL, the IC95 came out at 10.1 µg/mL (≈ 20.9 µM) and the IC50 stood at 2.05 µg/mL (≈ 4.27 µM). Also, the minimum inhibitory concentration (MIC) in the data set on MRSA was at least 100 µM. Moreover, the “LD50 HepG2” value with HepG2 was “>=100 μM”.

`Cc1ccc(S(=O)(=O)c2nnn3c2[nH]c(=O)c2ccc(OCC#N)cc23)c(C)c1` [Compound 54, 2-[[3-(2,4-dimethylphenyl)sulfonyl-5-oxo-4H-triazolo[1,5-a]quinazolin-8-yl]oxy]acetonitrile]: the MIC in the data set on MRSA was at least 100 µM. In addition, in the data set with HepG2, the “LD50 HepG2” value was “>=100 μM”.

Turning to `Cc1cc(C)c(S(=O)(=O)c2nnn3c2[nH]c(=O)c2ccccc23)c(Br)c1` [Compound 52, 3-(2-bromo-4,6-dimethyl-phenyl)sulfonyl-4H-triazolo[1,5-a]quinazolin-5-one], in data set [1], the minimal effective concentration was 6 µg/mL, the IC95 is 6.1 µg/mL (≈ 14.1 µM) and the IC50 was found to be 1.95 µg/mL (≈ 4.5 µM). Moreover, the MIC in the data set with MRSA is at least 100 µM. The “LD50 HepG2” value in the data set with HepG2 was “>=100 μM”.

As to `Cc1ccc(S(=O)(=O)c2nnn3c2[nH]c(=O)c2cc(Cl)ccc23)c(C)c1` [Compound 1, 7-chloro-3-(2,4-dimethylphenyl)sulfonyl-4H-triazolo[1,5-a]quinazolin-5-one], in data set [1], the minimal effective concentration stood at 4 µg/mL, the IC95 is 2.95 µg/mL (≈ 7.59 µM) and inhibition was half-maximal at 1.1 µg/mL (≈ 2.83 µM) (IC50). The minimal inhibitory concentration (MIC) in the data set on MRSA is at least 100 µM. For the same compound, in the data set on HepG2, the “LD50 HepG2” value was “>=100 μM”.

In the case of `COc1ccc2c(=O)[nH]c3c(S(=O)(=O)c4ccc(C(N)=O)cc4C)nnn3c2c1` [Compound 32, 4-[(8-methoxy-5-oxo-4H-triazolo[1,5-a]quinazolin-3-yl)sulfonyl]-3-methyl-benzamide], the MIC in the data set on MRSA is at least 100 µM. The “LD50 HepG2” value in the data set on HepG2 was “>=100 μM”.

For the compound `COc1ccc(S(=O)(=O)c2nnn3c2[nH]c(=O)c2ccc(OC)cc23)c(C)c1` [Compound 15, 8-methoxy-3-(4-methoxy-2-methyl-phenyl)sulfonyl-4H-triazolo[1,5-a]quinazolin-5-one], the MIC with MRSA was at least 100 µM. Moreover, the “LD50 HepG2” value in the data set on HepG2 is reported as “>=100 μM”.

For `COc1ccc2c(c1)c(=O)[nH]c1c(S(=O)(=O)c3ccc(C)cc3C)nnn12` [Compound 30, 3-(2,4-dimethylphenyl)sulfonyl-7-methoxy-4H-triazolo[1,5-a]quinazolin-5-one], the MIC in the data set with MRSA was at least 100 µM. The “LD50 HepG2” value in the data set on HepG2 is “>=100 μM”.

For the compound `Cc1ccc(S(=O)(=O)c2nnn3c2[nH]c(=O)c2ccc(C#N)cc23)c(C)c1` [Compound 6, 3-(2,4-dimethylphenyl)sulfonyl-5-oxo-4H-triazolo[1,5-a]quinazoline-8-carbonitrile], the MIC in the data set on MRSA was at least 100 µM. Moreover, in the data set on HepG2, the “LD50 HepG2” value is recorded as “>=100 μM”.

In the case of `COc1ccc2c(=O)[nH]c3c(S(=O)(=O)c4ccc(OC(F)(F)F)cc4C)nnn3c2c1` [Compound 19, 8-methoxy-3-[2-methyl-4-(trifluoromethoxy)phenyl]sulfonyl-4H-triazolo[1,5-a]quinazolin-5-one], the MIC in the data set with MRSA was at least 100 µM. Further, the “LD50 HepG2” value in the data set on HepG2 is “>=100 μM”.

Consider `COc1ccc2c(=O)[nH]c3c(S(=O)(=O)c4ccc(C(=O)O)cc4C)nnn3c2c1` [Compound 23, 4-[(8-methoxy-5-oxo-4H-triazolo[1,5-a]quinazolin-3-yl)sulfonyl]-3-methyl-benzoic acid], for which the MIC with MRSA was at least 100 µM. In the data set with HepG2, the “LD50 HepG2” value was “>=100 μM”.

With `COc1ccc2c(=O)[nH]c3c(S(=O)(=O)c4ccc(F)cc4C)nnn3c2c1` [Compound 17, 3-(4-fluoro-2-methyl-phenyl)sulfonyl-8-methoxy-4H-triazolo[1,5-a]quinazolin-5-one], in the data set with MRSA, the MIC is at least 100 µM. The “LD50 HepG2” value in the data set with HepG2 is reported as “>=100 μM”.

Take `COc1ccc2c(=O)[nH]c3c(S(=O)(=O)c4ccc(C(F)(F)F)cc4)nnn3c2c1` [Compound 25, 8-methoxy-3-[4-(trifluoromethyl)phenyl]sulfonyl-4H-triazolo[1,5-a]quinazolin-5-one]: the MIC in the data set with MRSA was at least 100 µM. For the same compound, the “LD50 HepG2” value with HepG2 is reported as “>=100 μM”.

In the case of `COc1ccc2c(=O)[nH]c3c(S(=O)(=O)c4ccc(Cl)cc4C)nnn3c2c1` [Compound 20, 3-(4-chloro-2-methyl-phenyl)sulfonyl-8-methoxy-4H-triazolo[1,5-a]quinazolin-5-one], the MIC in the data set with MRSA is at least 100 µM. Besides, the “LD50 HepG2” value in the data set on HepG2 is reported as “>=100 μM”.

In the case of `COc1cc2c(=O)[nH]c3c(S(=O)(=O)c4ccc(C)cc4C)nnn3c2cc1O` [Compound 57, 3-(2,4-dimethylphenyl)sulfonyl-8-hydroxy-7-methoxy-4H-triazolo[1,5-a]quinazolin-5-one], the MIC in the data set with MRSA is at least 100 µM. The “LD50 HepG2” value in the data set with HepG2 is “>=100 μM”.

Regarding `COc1ccc2c(=O)[nH]c3c(S(=O)(=O)c4ccc(C#N)cc4)nnn3c2c1` [Compound 29, 4-[(8-methoxy-5-oxo-4H-triazolo[1,5-a]quinazolin-3-yl)sulfonyl]benzonitrile], the MIC with MRSA is at least 100 µM. Further, in the data set with HepG2, the “LD50 HepG2” value is on record as “>=100 μM”.

For the compound `Cc1ccc(S(=O)(=O)c2nnn3c2[nH]c(=O)c2ccc(OCCCC(N)=O)cc23)c(C)c1` [Compound 56, 4-[[3-(2,4-dimethylphenyl)sulfonyl-5-oxo-4H-triazolo[1,5-a]quinazolin-8-yl]oxy]butanamide], the minimum inhibitory concentration (MIC) in the data set with MRSA was at least 100 µM. The “LD50 HepG2” value with HepG2 is “>=100 μM”.

Consider `CC(C)c1ccc(S(=O)(=O)c2nnn3c2[nH]c(=O)c2cccc(Cl)c23)cc1` [Compound 9, 9-chloro-3-(4-isopropylphenyl)sulfonyl-4H-triazolo[1,5-a]quinazolin-5-one], for which, in the data set on MRSA, the MIC came out at 25 µM (≈ 10.1 µg/mL). The “LD50 HepG2” value with HepG2 was 25 µM.

With `COc1ccc2c(=O)[nH]c3c(S(=O)(=O)c4ccc(C)cc4OC)nnn3c2c1` [Compound 10, 8-methoxy-3-(2-methoxy-4-methyl-phenyl)sulfonyl-4H-triazolo[1,5-a]quinazolin-5-one], the MIC in the data set with MRSA is at least 100 µM. For the same compound, the “LD50 HepG2” value with HepG2 is given as “>=100 μM”.

For the compound `COc1ccc2c(=O)[nH]c3c(S(=O)(=O)c4ccc(-c5nn[nH]n5)cc4C)nnn3c2c1` [Compound 31, 8-methoxy-3-[2-methyl-4-(2H-tetrazol-5-yl)phenyl]sulfonyl-4H-triazolo[1,5-a]quinazolin-5-one], the MIC with MRSA was at least 100 µM. The “LD50 HepG2” value with HepG2 is given as “>=100 μM”.

Turning to `COc1ccc2c(=O)[nH]c3c(S(=O)(=O)c4ccc(OC(C)C)cc4C)nnn3c2c1` [Compound 11, 3-(4-isopropoxy-2-methyl-phenyl)sulfonyl-8-methoxy-4H-triazolo[1,5-a]quinazolin-5-one], the minimum inhibitory concentration (MIC) in the data set with MRSA was at least 100 µM. Moreover, in the data set with HepG2, the “LD50 HepG2” value is “>=100 μM”.

Consider `COc1ccc2c(=O)[nH]c3c(S(=O)(=O)c4ccc(C#N)cc4C)nnn3c2c1` [Compound 22, 4-[(8-methoxy-5-oxo-4H-triazolo[1,5-a]quinazolin-3-yl)sulfonyl]-3-methyl-benzonitrile], for which the MIC in the data set on MRSA was at least 100 µM. The “LD50 HepG2” value in the data set on HepG2 is listed as “>=100 μM”.

Regarding `COc1ccc2c(=O)[nH]c3c(S(=O)(=O)c4ccc(NC(C)=O)cc4C)nnn3c2c1` [Compound 16, N-[4-[(8-methoxy-5-oxo-4H-triazolo[1,5-a]quinazolin-3-yl)sulfonyl]-3-methyl-phenyl]acetamide], in the data set with MRSA, the MIC is at least 100 µM. Besides, the “LD50 HepG2” value in the data set with HepG2 is recorded as “>=100 μM”.

In the case of `COc1ccc2c(=O)[nH]c3c(S(=O)(=O)c4ccc(Br)cc4C)nnn3c2c1` [Compound 13, 3-(4-bromo-2-methyl-phenyl)sulfonyl-8-methoxy-4H-triazolo[1,5-a]quinazolin-5-one], the MIC with MRSA is at least 100 µM. In addition, the “LD50 HepG2” value in the data set with HepG2 is “>=100 μM”.

As for `COc1ccc2c(=O)[nH]c3c(S(=O)(=O)c4ccc(-c5nnc(C)[nH]5)cc4C)nnn3c2c1` [Compound 33, 8-methoxy-3-[2-methyl-4-(5-methyl-4H-1,2,4-triazol-3-yl)phenyl]sulfonyl-4H-triazolo[1,5-a]quinazolin-5-one], in the data set on MRSA, the MIC is at least 100 µM. For the same compound, the “LD50 HepG2” value with HepG2 was “>=100 μM”.
